Laboratory results reported in ChEMBL document CHEMBL5257079, “Discovery of FXR/PPARγ dual partial agonist” (Bioorg Med Chem, 2023).
Active and inactive are the calls of the source. The rule behind the calls is not given here.

Assays:
[1] = target: T1, Peroxisome proliferator-activated receptor gamma (Mus musculus) (UniProt P37238); experiment: Inhibition of TNFalpha stimulated PPARgamma phosphorylation at Ser273 residue in mouse 3T3-L1 cells preincubated for 60 mins followed by TNFalpha addition for 90 mins by Western blot analysis; assay type: cell-based; settings: time 150.0 min
T1 sequence (whole entry): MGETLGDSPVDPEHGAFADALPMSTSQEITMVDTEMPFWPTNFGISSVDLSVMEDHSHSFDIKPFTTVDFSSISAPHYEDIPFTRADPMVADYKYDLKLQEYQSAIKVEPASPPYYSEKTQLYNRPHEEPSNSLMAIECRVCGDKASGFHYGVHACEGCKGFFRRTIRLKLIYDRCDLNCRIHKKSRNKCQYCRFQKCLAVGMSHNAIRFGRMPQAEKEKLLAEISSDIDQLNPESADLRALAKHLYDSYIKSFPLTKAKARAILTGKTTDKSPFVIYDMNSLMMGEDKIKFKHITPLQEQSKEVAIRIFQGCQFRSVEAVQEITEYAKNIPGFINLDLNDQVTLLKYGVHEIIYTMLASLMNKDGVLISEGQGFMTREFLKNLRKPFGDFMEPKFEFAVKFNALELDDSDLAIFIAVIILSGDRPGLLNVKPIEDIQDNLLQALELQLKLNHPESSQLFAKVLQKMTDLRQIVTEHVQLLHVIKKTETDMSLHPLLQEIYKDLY

[2] = target: T2, Bile acid receptor (Homo sapiens) (UniProt Q96RI1); experiment: Partial agonist activity at FXR in human Huh-7 cells assessed as reduction in CDCA-induced SHP gene expression at 10 uM by RT-PCR analysis; assay type: cell-based; settings: filed as partial agonist
T2 sequence (whole entry): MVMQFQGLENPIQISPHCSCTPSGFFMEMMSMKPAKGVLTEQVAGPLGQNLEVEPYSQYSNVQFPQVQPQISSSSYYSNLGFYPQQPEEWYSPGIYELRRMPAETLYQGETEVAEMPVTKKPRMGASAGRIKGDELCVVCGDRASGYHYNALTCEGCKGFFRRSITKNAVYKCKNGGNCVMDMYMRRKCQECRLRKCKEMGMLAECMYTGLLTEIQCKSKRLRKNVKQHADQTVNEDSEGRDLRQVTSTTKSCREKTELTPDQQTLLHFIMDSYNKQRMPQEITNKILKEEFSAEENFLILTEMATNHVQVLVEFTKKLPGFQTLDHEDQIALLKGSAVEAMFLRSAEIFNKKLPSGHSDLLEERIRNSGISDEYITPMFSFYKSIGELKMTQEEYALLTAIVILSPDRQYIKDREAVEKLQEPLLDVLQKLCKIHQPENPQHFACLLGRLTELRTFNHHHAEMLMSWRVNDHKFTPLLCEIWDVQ

[3] = Metabolic stability in mouse liver microsomes assessed as parent compound remaining after 30 mins; assay type: ADME, Microsome; settings: read-out: Stability
Bile acid receptor = target: T3, Bile acid receptor (Homo sapiens, UniProt Q96RI1); experiment: Partial agonist activity at FXR-LBD-GST (unknown origin) by TR-FRET assay; settings: read-out: EC50
T3 sequence (Q96RI1 whole entry): T2 sequence (whole entry)

[4] = target: T2, Bile acid receptor (Homo sapiens); experiment: Partial agonist activity at FXR in human Huh-7 cells assessed as reduction in CDCA-induced OSTalpha gene expression at 10 uM by RT-PCR analysis; assay type: cell-based; settings: filed as partial agonist
[5] = target: T2, Bile acid receptor (Homo sapiens); experiment: Partial agonist activity at FXR in human Huh-7 cells assessed as reduction in CDCA-induced SREBP gene expression at 10 uM by RT-PCR analysis; assay type: cell-based; settings: filed as partial agonist
[6] = Metabolic stability in mouse liver microsomes assessed as half life; assay type: ADME, Microsome
[7] = target: T4, Vitamin D3 receptor (Homo sapiens) (UniProt P11473); experiment: Activation of VDR (unknown origin) at 10 uM
T4 sequence (whole entry): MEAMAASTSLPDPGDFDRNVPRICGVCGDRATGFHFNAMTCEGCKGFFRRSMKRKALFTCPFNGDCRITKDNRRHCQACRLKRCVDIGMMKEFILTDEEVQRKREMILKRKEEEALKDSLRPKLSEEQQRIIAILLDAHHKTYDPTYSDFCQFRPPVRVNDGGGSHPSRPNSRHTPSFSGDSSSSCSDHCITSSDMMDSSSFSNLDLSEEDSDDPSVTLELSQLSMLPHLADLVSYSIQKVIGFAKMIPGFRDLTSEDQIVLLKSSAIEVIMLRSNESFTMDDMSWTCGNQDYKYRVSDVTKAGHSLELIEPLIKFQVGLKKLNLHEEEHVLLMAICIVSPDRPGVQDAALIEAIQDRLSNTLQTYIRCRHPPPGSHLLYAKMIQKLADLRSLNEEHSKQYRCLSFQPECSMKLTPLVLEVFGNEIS

[8] = target: T2, Bile acid receptor (Homo sapiens); experiment: Activation of FXR (unknown origin) at 10 uM; settings: filed as activator
[9] = target: T5, G-protein coupled bile acid receptor 1 (Homo sapiens) (UniProt Q8TDU6); experiment: Activation of TGR5 (unknown origin) at 10 uM
T5 sequence (whole entry): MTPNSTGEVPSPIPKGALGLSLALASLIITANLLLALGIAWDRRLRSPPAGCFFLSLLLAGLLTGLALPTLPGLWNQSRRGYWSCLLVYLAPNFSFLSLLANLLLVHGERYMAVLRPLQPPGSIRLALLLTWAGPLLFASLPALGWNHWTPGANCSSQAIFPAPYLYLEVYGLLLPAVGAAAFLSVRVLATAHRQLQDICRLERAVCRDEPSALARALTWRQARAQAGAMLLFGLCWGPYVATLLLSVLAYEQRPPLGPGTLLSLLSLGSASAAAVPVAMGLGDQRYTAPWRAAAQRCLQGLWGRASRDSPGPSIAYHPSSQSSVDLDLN

[10] = target: T6, Oxysterols receptor LXR-alpha (Homo sapiens) (UniProt Q13133); experiment: Activation of LXR alpha (unknown origin) at 10 uM
T6 sequence (whole entry): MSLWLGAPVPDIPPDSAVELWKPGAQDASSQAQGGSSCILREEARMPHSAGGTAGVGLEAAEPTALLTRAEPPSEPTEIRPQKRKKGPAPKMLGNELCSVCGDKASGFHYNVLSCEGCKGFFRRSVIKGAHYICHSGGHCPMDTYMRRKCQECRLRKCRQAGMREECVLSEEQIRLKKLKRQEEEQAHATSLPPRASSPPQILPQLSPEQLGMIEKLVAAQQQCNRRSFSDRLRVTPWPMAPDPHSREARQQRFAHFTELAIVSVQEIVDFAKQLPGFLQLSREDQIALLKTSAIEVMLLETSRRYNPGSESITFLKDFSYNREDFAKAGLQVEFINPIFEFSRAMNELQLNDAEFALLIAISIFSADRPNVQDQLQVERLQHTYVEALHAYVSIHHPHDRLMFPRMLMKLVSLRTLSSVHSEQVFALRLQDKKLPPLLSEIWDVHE

SMILES: CC(C)(C)c1ccc(-n2cnc3c(NC(=O)Cc4ccc(C(=O)O)cc4)cccc32)cc1
- inhibition [1]: Dose-Dependent Effect
- Activity [2]: Active
- remaining at 0.5 h [3]: 69.5%
- EC50 (Bile acid receptor): 250 nM
- Activity [4]: Active
- Activity [5]: Active
- half-life [6]: 57 min
- Activity [7]: inactive
- Activity [8]: Active
- Activity [9]: inactive
- Activity [10]: inactive
